Experimental data published in patent US20170239237A1, “PYRROLOQUINOLINE DERIVATIVES AS 5-HT6 ANTAGONISTS, PREPARATION METHOD AND USE THEREOF” (Uniwersytet Jagiellonski, priority 2013, published 2017).
Read-outs that look alike come from different tables or passages of the source. Marks after values point to notes of the source that are not given here.

Assays:
5-HT6 receptor = 5-HT6 receptor (Homo sapiens, UniProt P50406); assay: Radioligand binding, 5-HT6 ([3H]-LSD displacement); conditions: for displacement % at 10^−6M, 5-HT6: values marked c in the 5-HT6 column
Sequence of 5-HT6 receptor (P50406 whole entry): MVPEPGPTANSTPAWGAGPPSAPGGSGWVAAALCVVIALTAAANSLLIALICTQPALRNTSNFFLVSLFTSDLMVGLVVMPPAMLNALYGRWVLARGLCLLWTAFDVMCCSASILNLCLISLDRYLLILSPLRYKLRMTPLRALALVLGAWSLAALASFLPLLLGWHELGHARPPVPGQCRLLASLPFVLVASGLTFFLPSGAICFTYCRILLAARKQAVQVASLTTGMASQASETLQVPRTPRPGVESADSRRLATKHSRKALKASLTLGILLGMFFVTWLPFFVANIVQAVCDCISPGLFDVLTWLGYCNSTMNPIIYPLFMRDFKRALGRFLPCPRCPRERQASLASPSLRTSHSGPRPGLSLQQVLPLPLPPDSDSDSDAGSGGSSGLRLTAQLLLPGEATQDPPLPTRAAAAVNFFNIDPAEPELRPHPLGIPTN

5-HT7 receptor = 5-HT7 receptor (Homo sapiens, UniProt P34969); assay: Radioligand binding, 5-HT7 ([3H]-5-CT displacement)
Sequence of 5-HT7 receptor (P34969 1-432 limits assumed): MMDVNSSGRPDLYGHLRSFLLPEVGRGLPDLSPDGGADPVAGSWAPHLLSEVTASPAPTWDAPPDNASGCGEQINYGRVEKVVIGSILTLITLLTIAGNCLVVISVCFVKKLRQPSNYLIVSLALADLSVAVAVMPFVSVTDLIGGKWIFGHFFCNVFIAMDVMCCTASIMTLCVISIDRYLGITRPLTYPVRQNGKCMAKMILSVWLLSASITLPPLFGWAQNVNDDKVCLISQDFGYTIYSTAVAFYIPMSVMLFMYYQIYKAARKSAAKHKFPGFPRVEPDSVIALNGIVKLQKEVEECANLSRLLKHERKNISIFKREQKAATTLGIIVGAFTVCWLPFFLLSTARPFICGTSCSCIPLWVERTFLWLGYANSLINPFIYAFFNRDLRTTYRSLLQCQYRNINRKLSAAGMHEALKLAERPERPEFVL

dopamine D2L receptor = dopamine D2L receptor (Homo sapiens, UniProt P14416); assay: Radioligand binding, D2 ([3H]-raclopride displacement)
Sequence of dopamine D2L receptor (P14416 whole entry): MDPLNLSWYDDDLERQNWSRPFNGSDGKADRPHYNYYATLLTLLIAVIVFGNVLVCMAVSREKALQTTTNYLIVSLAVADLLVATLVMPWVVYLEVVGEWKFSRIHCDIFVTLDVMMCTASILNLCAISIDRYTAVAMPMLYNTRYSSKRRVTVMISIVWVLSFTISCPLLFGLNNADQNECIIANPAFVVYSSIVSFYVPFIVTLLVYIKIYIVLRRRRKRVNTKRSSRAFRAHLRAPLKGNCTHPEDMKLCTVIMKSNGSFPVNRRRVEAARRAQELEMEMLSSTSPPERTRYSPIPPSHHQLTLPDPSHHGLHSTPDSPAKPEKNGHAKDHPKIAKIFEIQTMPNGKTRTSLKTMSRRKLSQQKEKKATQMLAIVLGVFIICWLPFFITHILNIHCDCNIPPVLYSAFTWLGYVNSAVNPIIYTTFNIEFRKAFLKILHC

5-HT1A receptor = biological target: T1, 5-HT1A receptor (Homo sapiens, UniProt P08908); assay: Radioligand binding, 5-HT1A ([3H]-8-OH-DPAT displacement)
T1 sequence (P08908 1-422): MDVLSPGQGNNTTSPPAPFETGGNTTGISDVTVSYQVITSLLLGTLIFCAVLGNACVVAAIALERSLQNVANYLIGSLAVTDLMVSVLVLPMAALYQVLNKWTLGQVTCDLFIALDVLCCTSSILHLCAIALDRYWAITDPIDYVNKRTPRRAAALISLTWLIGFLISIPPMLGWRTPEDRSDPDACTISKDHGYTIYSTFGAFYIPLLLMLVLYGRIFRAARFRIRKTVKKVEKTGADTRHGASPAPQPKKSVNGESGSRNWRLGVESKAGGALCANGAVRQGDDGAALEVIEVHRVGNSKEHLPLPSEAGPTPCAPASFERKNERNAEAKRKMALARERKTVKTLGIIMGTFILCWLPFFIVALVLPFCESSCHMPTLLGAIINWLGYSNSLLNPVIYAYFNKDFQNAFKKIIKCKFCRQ

[1] = read-out: Ki 5-HT6, cloned human receptor in HEK293, three independent experiments, SEM ± 22%

SMILES | Ki (5-HT6 receptor) [nM] | Ki (5-HT7 receptor) [µM] | Ki (dopamine D2L receptor) [nM] | Ki (5-HT1A receptor) [nM] | also measured
O=S(=O)(c1ccccc1)n1ccc2c(NC3CCNC3)nc3ccccc3c21 (stereo not shown) [Compound 4, 1-(phenylsulfonyl)-N-(pyrrolidin-3-yl)-1H-pyrrolo[3,2-c]quinolin-4-amine] | 4 | 7.89 |  | 9150 | 
O=S(=O)(c1ccccc1Br)n1ccc2c(N3CCNCC3)nc3ccccc3c21 [Compound 28, 1-((2-bromophenyl)sulfonyl)-4-(piperazin-1-yl)-1H-pyrrolo[3,2-c]quinoline] | 3 | 7.9 | 7150 | 1220 | 
O=S(=O)(c1ccc(F)cc1)n1ccc2c(N3CCNCC3)nc3ccccc3c21 [Compound 31, 1-((4-fluorophenyl)sulfonyl)-4-(piperazin-1-yl)-1H-pyrrolo[3,2-c]quinoline] |  | 6.4 | 5940 | 214 | Ki (5-HT6 receptor; [1]): 18 nM
O=S(=O)(c1cc(F)ccc1F)n1ccc2c(N3CCNCC3)nc3ccccc3c21 [Compound 32, 1-((2,5-difluorophenyl)sulfonyl)-4-(piperazin-1-yl)-1H-pyrrolo[3,2-c]quinoline] |  | 7.69 | 5090 | 238 | 
O=S(=O)(c1ccc(F)c(F)c1)n1ccc2c(N3CCNCC3)nc3ccccc3c21 [Compound 33, 1-((3,4-difluorophenyl)sulfonyl)-4-(piperazin-1-yl)-1H-pyrrolo[3,2-c]quinolinee] |  | 5.01 | 1780 | 311 | 
O=S(=O)(c1ccc(Cl)c(Cl)c1)n1ccc2c(N3CCNCC3)nc3ccccc3c21 [Compound 34, 1-((3,4-dichlorophenyl)sulfonyl)-4-(piperazin-1-yl)-1H-pyrrolo[3,2-c]quinoline] |  | 1.98 | 1550 |  | 
O=S(=O)(c1cccc(C(F)(F)F)c1)n1ccc2c(N3CCNCC3)nc3ccccc3c21 [Compound 35, 1-((3-(trifluoromethyl)phenyl)sulfonyl)-4-(piperazin-1-yl)-1H-pyrrolo[3,2-c]quinoline] |  | 6.39 | 2630 |  | 
O=S(=O)(c1ccc(C(F)(F)F)cc1)n1ccc2c(N3CCNCC3)nc3ccccc3c21 [Compound 36, 1-((4-(trifluoromethyl)phenyl)sulfonyl)-4-(piperazin-1-yl)-1H-pyrrolo[3,2-c]quinoline] |  | 2.26 | 13300 | 194 | Ki (5-HT6 receptor; [1]): 34 nM
COc1cccc(S(=O)(=O)n2ccc3c(N4CCNCC4)nc4ccccc4c32)c1 [Compound 37, 1-((3-methoxyphenyl)sulfonyl)-4-(piperazin-1-yl)-1H-pyrrolo[3,2-c]quinoline] |  | 5.25 | 7040 | 372 | 
Cc1cccc(S(=O)(=O)n2ccc3c(N4CCNCC4)nc4ccccc4c32)c1 [Compound 39, 1-((3-methylphenyl)sulfonyl)-4-(piperazin-1-yl)-1H-pyrrolo[3,2-c]quinoline] |  |  |  |  | Ki (5-HT7 receptor; read-out: Ki 5-HT7): 4.14 µM; Ki (dopamine D2L receptor; read-out: Ki D2, cloned human receptor in HEK293, three independent experiments, SEM ± 22%): 2160 nM; Ki (5-HT1A receptor; read-out: Ki 5-HT1A, cloned human receptor in HEK293, three independent experiments, SEM ± 22%): 760 nM
Clc1cccc(Cn2ccc3c(N4CCNCC4)nc4ccccc4c32)c1 [Compound 49, 1-(3-chlorobenzyl)-4-(piperazin-1-yl)-1H-pyrrolo[3,2-c]quinoline] |  | 3.27 |  | 3260 | 
CN1CCN(c2nc3ccccc3c3c2ccn3S(=O)(=O)c2cccc(Cl)c2)CC1 [Compound 54, 1-((3-chlorophenyl)sulfonyl)-4-(4-methylpiperazin-1-yl)-1H-pyrrolo[3,2-c]quinoline] |  | 3.49 | 1260 | 519 | 
CN1CCN(c2nc3ccccc3c3c2ccn3S(=O)(=O)c2ccc(F)cc2)CC1 [Compound 56, 1-((4-fluorophenyl)sulfonyl)-4-(4-methylpiperazin-1-yl)-1H-pyrrolo[3,2-c]quinoline] |  |  | 393 | 152 | 
CN1CCN(c2nc3ccccc3c3c2ccn3S(=O)(=O)c2cccc3ccccc23)CC1 [Compound 58, 1-(naphthalen-1-ylsulfonyl)-4-(4-methylpiperazin-1-yl)-1H-pyrrolo[3,2-c]quinoline] | 36 |  | 826 | 211 | 
O=S(=O)(c1ccccc1)n1ccc2c(N3CCN(Cc4ccccc4)CC3)nc3ccccc3c21 [Compound 60, 1-(phenylsulfonyl)-4-(4-benzylpiperazin-1-yl)-1H-pyrrolo[3,2-c]quinoline] | 220 | 2.36 | 415 | 33000 | 
O=S(=O)(c1cccc2ccccc12)n1ccc2c(N3CCNCC3)nc3ccc(Cl)cc3c21 [Compound 71, 8-chloro-1-(naphthalen-1-ylsulfonyl)-4-(piperazin-1-yl)-1H-pyrrolo[3,2-c]quinoline] |  |  |  |  | displacement % at 10^−6M, 5-HT6 (5-HT6 receptor): 98^c %
O=S(=O)(c1cccc(Cl)c1)n1ccc2c(N3CCCNCC3)nc3ccccc3c21 [Compound 75, 1-((3-chlorophenyl)sulfonyl)-4-(1,4-diazepan-1-yl)-1H-pyrrolo[3,2-c]quinoline] |  |  |  |  | displacement % at 10^−6M, 5-HT6 (5-HT6 receptor): 100^c %
O=S(=O)(c1cccc2cccnc12)n1ccc2c(N3CCOCC3)nc3ccccc3c21 [Compound 79, 1-(quinolin-8-ylsulfonyl)-4-(morpholine-4-yl)-1H-pyrrolo[3,2-c]quinoline] | 95 | 3.42 | 1230 |  | 
O=S(=O)(c1cc(F)ccc1F)n1ccc2c(OC3CCNC3)nc3ccccc3c21 (stereo not shown) [Compound 81, 1-((2,5-difluorophenyl)sulfonyl)-4-(pyrrolidin-3-yloxy)-1H-pyrrolo[3,2-c]quinoline] |  |  |  |  | displacement % at 10^−6M, 5-HT6 (5-HT6 receptor): 96^c %

More lines, main results first:

Ki (5-HT6 receptor) [nM] | Ki (5-HT7 receptor) [µM] | Ki (dopamine D2L receptor) [nM] | Ki (5-HT1A receptor) [nM] | SMILES | also measured
10 | 3.97 | 2260 | 1880 | CN(C)CCNc1nc2ccccc2c2c1ccn2S(=O)(=O)c1ccccc1 [Compound 1, N1,N1-dimethyl-N2-(1-(phenylsulfonyl)-1H-pyrrolo[3,2-c]quinolin-4-yl)ethane-1,2-diamine] | 
 | 2.13 | 1440 | 3030 | O=S(=O)(c1cccc(Cl)c1)n1ccc2c(NC3CCNC3)nc3ccccc3c21 (stereo not shown) [Compound 5, 1-((3-chlorophenyl)sulfonyl)-N-(pyrrolidin-3-yl)-1H-pyrrolo[3,2-c]quinolin-4-amine] | 
9 | 5.22 |  | 7060 | O=S(=O)(c1cc(F)ccc1F)n1ccc2c(NC3CCNC3)nc3ccccc3c21 (stereo not shown) [Compound 12, 1-((2,5-difluorophenyl)sulfonyl)-N-(pyrrolidin-3-yl)-1H-pyrrolo[3,2-c]quinolin-4-amine] | 
101 | 1.29 |  | 6310 | CC(C)(C)c1ccc(S(=O)(=O)n2ccc3c(NC4CCNC4)nc4ccccc4c32)cc1 (stereo not shown) [Compound 17, 1-((4-(tert-butyl)phenyl)sulfonyl)-N-(pyrrolidin-3-yl)-1H-pyrrolo[3,2-c]quinolin-4-amine] | 
94 | 1.31 | 1550 | 19100 | Cc1ccc2sc(S(=O)(=O)n3ccc4c(NC5CCNC5)nc5ccccc5c43)cc2c1 (stereo not shown) [Compound 23, 1-((5-methylbenzo[b]thiophen-2-yl)sulfonyl)-N-(pyrrolidin-3-yl)-1H-pyrrolo[3,2-c]quinolin-4-amine] | 
 |  | 1130 | 298 | O=S(=O)(c1ccccc1)n1ccc2c(N3CCNCC3)nc3ccccc3c21 [Compound 27, 1-(phenylsulfonyl)-4-(piperazin-1-yl)-1H-pyrrolo[3,2-c]quinoline] | 
41 | 8.45 | 1680 |  | CC(C)(C)c1ccc(S(=O)(=O)n2ccc3c(N4CCNCC4)nc4ccccc4c32)cc1 [Compound 41, 1-((4-(tert-butyl)phenyl)sulfonyl)-4-(piperazin-1-yl)-1H-pyrrolo[3,2-c]quinoline] | 
8 |  | 817 | 590 | O=S(=O)(c1ccc(Cl)s1)n1ccc2c(N3CCNCC3)nc3ccccc3c21 [Compound 46, 1-((5-chlorothiophen-2-yl)sulfonyl)-4-(piperazin-1-yl)-1H-pyrrolo[3,2-c]quinoline] | 
28 | 2.96 | 1560 |  | Cc1ccc2sc(S(=O)(=O)n3ccc4c(N5CCNCC5)nc5ccccc5c43)cc2c1 [Compound 47, 1-((5-methylbenzo[b]thiophen-2-yl)sulfonyl)-4-(piperazin-1-yl)-1H-pyrrolo[3,2-c]quinoline] | 
 | 3.8 | 342 | 127 | CN1CCN(c2nc3ccccc3c3c2ccn3S(=O)(=O)c2ccccc2)CC1 [Compound 53, 1-(phenylsulfonyl)-4-(4-methylpiperazin-1-yl)-1H-pyrrolo[3,2-c]quinoline] | 
 | 8.25 | 894 | 640 | CN1CCN(c2nc3ccccc3c3c2ccn3S(=O)(=O)c2cccc(F)c2)CC1 [Compound 55, 1-((3-fluorophenyl)sulfonyl)-4-(4-methylpiperazin-1-yl)-1H-pyrrolo[3,2-c]quinoline] | 
